Experimental data as given in patent US20240247015A1, “PHOSPHORUS DERIVATIVES AS NOVEL SOS1 INHIBITORS” (BAYER AKTIENGESELLSCHAFT, priority 2021, published 2024).

Target: interaction of human SOS1 (SOS1) with human K-RasG12C (Homo sapiens (Human), UniProt Q07889)
Experiment: Biochemical assay: hK-RasG12C interaction assay with hSOS1 (HTRF)
Assay type: binding
Conditions: GST-hK-RasG12C with His-hSOS1, 60 min incubation at 20° C., mean, read-out: K-RasG12C - SOS interaction assay IC50 (mean)
Summary of the method: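 Compounds, duplicates at 11 concentrations from 0.073 nM to 20 µM, were preincubated 2 min with 10 nM GST-hK-RasG12C, then 20 nM His-hSOS1 was added, all at 20 °C. After 60 min, 665/620 nm HTRF ratio normalized to DMSO and SOS1-free controls; IC50 by 4-parameter fit.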

Chain of interaction of human SOS1 (SOS1) with human K-RasG12C (Q07889 564-1049 limits assumed): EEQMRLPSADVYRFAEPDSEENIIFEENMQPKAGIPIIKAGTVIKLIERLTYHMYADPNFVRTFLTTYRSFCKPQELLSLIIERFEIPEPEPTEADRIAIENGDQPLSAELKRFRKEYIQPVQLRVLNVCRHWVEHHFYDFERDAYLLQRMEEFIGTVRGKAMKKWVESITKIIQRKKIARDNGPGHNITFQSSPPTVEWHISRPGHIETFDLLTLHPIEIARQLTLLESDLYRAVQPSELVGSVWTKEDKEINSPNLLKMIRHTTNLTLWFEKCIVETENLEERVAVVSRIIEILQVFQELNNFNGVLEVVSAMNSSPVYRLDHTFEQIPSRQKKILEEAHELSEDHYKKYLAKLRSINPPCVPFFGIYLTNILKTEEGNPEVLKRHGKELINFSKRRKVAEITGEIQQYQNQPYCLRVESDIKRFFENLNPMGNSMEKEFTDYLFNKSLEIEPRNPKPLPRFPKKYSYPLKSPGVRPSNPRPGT

IC50 [nM]	SMILES
17.5	COc1nc2nc(C)nc(N[C@H](C)c3cccc(C(F)(F)F)c3C)c2cc1P(C)(C)=O [Example 101, 6-(dimethylphosphoryl)-7-methoxy-2-methyl-N-{(1R)-1-[2-methyl-3-(trifluoromethyl)phenyl]ethyl}pyrido[2,3-d]pyrimidin-4-amine]
80.2	Cc1nc(N[C@H](C)c2cccc(C(F)(F)F)c2C)c2cc(P(=O)(C(C)C)C(C)C)c(C)nc2n1 [Example 102, 6-[di(propan-2-yl)phosphoryl]-2,7-dimethyl-N-{(1R)-1-[2-methyl-3-(trifluoromethyl)phenyl]ethyl}pyrido[2,3-d]pyrimidin-4-amine]
14.2	CCP(=O)(CC)c1cnc2nc(C)nc(N[C@H](C)c3cccc(C(F)(F)C(C)(C)O)c3F)c2c1 [Example 103, 1-{3-[(1R)-1-{[6-(diethylphosphoryl)-2-methylpyrido[2,3-d]pyrimidin-4-yl]amino}ethyl]-2-fluorophenyl}-1,1-difluoro-2-methylpropan-2-ol]
18.8	Cc1nc(N[C@H](C)c2cccc(C(F)(F)F)c2C)c2cc(P3(=O)CCCC3)ccc2n1 [Example 104, 1-[2-methyl-4-{{(1R)-1-[2-methyl-3-(trifluoromethyl)phenyl]ethyl}amino)quinazolin-6-yl]-1lambda^5-phospholan-1-one]
117	Cc1nc(N[C@H](C)c2cccc(C(F)(F)F)c2C)c2cc(P3(=O)CCN(Cc4ccccc4)CC3)ccc2n1 [Example 105, 1-benzyl-4-[2-methyl-4-({(1R)-1-[2-methyl-3-(trifluoromethyl)phenyl]ethyl}amino)quinazolin-6-yl]-1,4lambda^5-azaphosphinan-4-one]
16.1	Cc1nc(N[C@H](C)c2cccc(C(F)(F)F)c2C)c2cc(P(C)(C)=O)ccc2n1 [Example 106, 6-(dimethylphosphoryl)-2-methyl-N-{(1R)-1-[2-methyl-3-(trifluoromethyl)phenyl]ethyl}quinazolin-4-amine]
20.5	Cc1nc(N[C@H](C)c2cccc(C(F)F)c2F)c2cc(P3(=O)CCCC3)ncc2n1 [Example 107, 1-[4-{{(1R)-1-[3-(difluoromethyl)-2-fluorophenyl]ethyl}amino)-2-methylpyrido[3,4-d]pyrimidin-6-yl]-1lambda^5-phospholan-1-one]
153	Cc1nc(N[C@H](C)c2cccc(C(F)F)c2F)c2cc(P(=O)(C(C)C)C(C)C)ncc2n1 [Example 108, N-{(1R)-1-[3-(difluoromethyl)-2-fluorophenyl]ethyl}-6-[di(propan-2-yl)phosphoryl]-2-methylpyrido[3,4-d]pyrimidin-4-amine]
33.3	Cc1nc(N[C@H](C)c2cccc(C(F)(F)C(=O)C(C)C)c2F)c2cc(P(C)(C)=O)ncc2n1 [Example 109, 1-{3-[(1R)-1-{[6-(dimethylphosphoryl)-2-methylpyrido[3,4-d]pyrimidin-4-yl]amino}ethyl]-2-fluorophenyl}-1,1-difluoro-3-methylbutan-2-one]
56.8	Cc1nc(N[C@H](C)c2cccc(C(F)(F)C(=O)C(C)(C)C)c2F)c2cc(P(C)(C)=O)ncc2n1 [Example 110, 1-{3-[(1R)-1-{[6-(dimethylphosphoryl)-2-methylpyrido[3,4-d]pyrimidin-4-yl]amino}ethyl]-2-fluorophenyl}-1,1-difluoro-3,3-dimethylbutan-2-one]
66.5	Cc1nc(N[C@H](C)c2cccc(C(F)F)c2F)c2cc(P(C)(=O)C(C)C)ncc2n1 (stereo partly drawn) [Example 114, N-{(1R)-1-[3-(difluoromethyl)-2-fluorophenyl]ethyl}-2-methyl-6-[methyl(propan-2-yl)phosphoryl]pyrido[3,4-d]pyrimidin-4-amine]
56.9	CCP(C)(=O)c1cc2c(N[C@H](C)c3cccc(C(F)F)c3F)nc(C)nc2cn1 (stereo partly drawn) [Example 117, N-{(1R)-1-[3-(difluoromethyl)-2-fluorophenyl]ethyl}-6-[ethyl(methyl)phosphoryl]-2-methylpyrido[3,4-d]pyrimidin-4-amine]
36.7	Cc1nc(N[C@H](C)c2cccc(C(F)(F)F)c2Cl)c2cc(P(C)(C)=O)ncc2n1 [Example 120, N-{(1R)-1-[2-chloro-3-(trifluoromethyl)phenyl]ethyl}-6-(dimethylphosphoryl)-2-methylpyrido[3,4-d]pyrimidin-4-amine]
87.1	COC(C)(C)C(F)(F)c1cccc([C@@H](C)Nc2nc(C)nc3cnc(P(C)(C)=O)cc23)c1F [Example 121, N-{(1R)-1-[3-(1,1-difluoro-2-methoxy-2-methylpropyl)-2-fluorophenyl]ethyl}-6-(dimethylphosphoryl)-2-methylpyrido[3,4-d]pyrimidin-4-amine]
62.6	COC(C)(C)C(F)(F)c1cccc([C@@H](C)Nc2nc(C)nc3cnc(P4(=O)CCCC4)cc23)c1F [Example 122, 1-[4-({(1R)-1-[3-(1,1-difluoro-2-methoxy-2-methylpropyl)-2-fluorophenyl]ethyl}amino)-2-methylpyrido[3,4-d]pyrimidin-6-yl]-1lambda^5-phospholan-1-one]
59	CCP(=O)(CC)c1cc2c(N[C@H](C)c3cccc(C(F)(F)C(C)(C)O)c3F)nc(C)nc2cn1 [Example 123, 1-{3-[(1R)-1-{[6-(diethylphosphoryl)-2-methylpyrido[3,4-d]pyrimidin-4-yl]amino}ethyl]-2-fluorophenyl}-1,1-difluoro-2-methylpropan-2-ol]
16.7	Cc1nc(N[C@H](C)c2cccc(C(F)(F)CO)c2F)c2cc(P(C)(C)=O)nc(C)c2n1 [Example 124, 2-{3-[(1R)-1-{[6-(dimethylphosphoryl)-2,8-dimethylpyrido[3,4-d]pyrimidin-4-yl]amino}ethyl]-2-fluorophenyl}-2,2-difluoroethan-1-ol]
44.3	Cc1nc(N[C@H](C)c2cccc(C(F)F)c2F)c2cc(P(C)(C)=O)c(C(F)(F)F)nc2n1 [Example 125, N-{(1R)-1-[3-(difluoromethyl)-2-fluorophenyl]ethyl}-6-(dimethylphosphoryl)-2-methyl-7-(trifluoromethyl)pyrido[2,3-d]pyrimidin-4-amine]
9.24	Cc1nc(N[C@H](C)c2cccc(C(F)F)c2F)c2cc(P3(=O)CCCC3)c(C)nc2n1 [Example 126, 1-[4-{{(1R)-1-[3-(difluoromethyl)-2-fluorophenyl]ethyl}amino)-2,7-dimethylpyrido[2,3-d]pyrimidin-6-yl]-1lambda^5-phospholan-1-one]
23.4	Cc1nc(N[C@H](C)c2cccc(C(F)F)c2F)c2cc(P3(=O)CCCC3)ccc2n1 [Example 127, 1-[4-{{(1R)-1-[3-(difluoromethyl)-2-fluorophenyl]ethyl}amino)-2-methylquinazolin-6-yl]-1lambda^5-phospholan-1-one]
20.9	Cc1nc(N[C@H](C)c2cccc(C(F)F)c2F)c2cc(P(C)(C)=O)ccc2n1 [Example 128, N-{(1R)-1-[3-(difluoromethyl)-2-fluorophenyl]ethyl}-6-(dimethylphosphoryl)-2-methylquinazolin-4-amine]
132	Cc1nc(N[C@H](C)c2cccc(C(F)F)c2F)c2cc(P(=O)(C(C)C)C(C)C)c(C)nc2n1 [Example 129, N-{(1R)-1-[3-(difluoromethyl)-2-fluorophenyl]ethyl}-6-[di(propan-2-yl)phosphoryl]-2,7-dimethylpyrido[2,3-d]pyrimidin-4-amine]
16.1	CCP(C)(=O)c1cc2c(N[C@H](C)c3cccc(C(F)(F)CO)c3F)nc(C)nc2cn1 (stereo partly drawn) [Example 130, 2-{3-[(1R)-1-{{6-[ethyl(methyl)phosphoryl]-2-methylpyrido[3,4-d]pyrimidin-4-yl}amino)ethyl]-2-fluorophenyl}-2,2-difluoroethan-1-ol]
6.01	[2H]C([2H])([2H])[C@]([2H])(Nc1nc(C)nc2cnc(P3(=O)CCN(C(C)=O)CC3)cc12)c1cccc(C(F)(F)F)c1C [Example 138, 1-acetyl-4-(2-methyl-4-{[(1S)-1-[2-methyl-3-(trifluoromethyl)phenyl](^2H4)ethyl]amino}pyrido[3,4-d]pyrimidin-6-yl)-1,4lambda^5-azaphosphinan-4-one]
5.4	COCC(F)(F)c1cccc([C@@H](C)Nc2nc(C)nc3cnc(P4(=O)CCN(C(C)=O)CC4)cc23)c1F [Example 139, 1-acetyl-4-[4-({(1R)-1-[3-(1,1-difluoro-2-methoxyethyl)-2-fluorophenyl]ethyl}amino)-2-methylpyrido[3,4-d]pyrimidin-6-yl]-1,4lambda^5-azaphosphinan-4-one]
11.4	COC(C)(C)C(F)(F)c1cccc([C@@H](C)Nc2nc(C)nc3cnc(P4(=O)CCN(C(C)=O)CC4)cc23)c1F [Example 140, 1-acetyl-4-[4-({(1R)-1-[3-(1,1-difluoro-2-methoxy-2-methylpropyl)-2-fluorophenyl]ethyl}amino)-2-methylpyrido[3,4-d]pyrimidin-6-yl]-1,4lambda^5-azaphosphinan-4-one]
12.8	CC(=O)N1CCP(=O)(c2cc3c(N[C@H](C)c4cccc(C(C)(F)F)c4)nc(C)nc3cn2)CC1 [Example 141, 1-acetyl-4-[4-({(1R)-1-[3-(1,1-difluoroethyl)phenyl]ethyl}amino)-2-methylpyrido[3,4-d]pyrimidin-6-yl]-1,4lambda^5-azaphosphinan-4-one]
6.3	CC(=O)N1CCP(=O)(c2cc3c(N[C@H](C)c4cccc(C(F)(F)F)c4F)nc(C)nc3cn2)CC1 [Example 142, 1-acetyl-4-[4-{{(1R)-1-[2-fluoro-3-(trifluoromethyl)phenyl]ethyl}amino)-2-methylpyrido[3,4-d]pyrimidin-6-yl]-1,4lambda^5-azaphosphinan-4-one]
12.6	COCC(F)(F)c1cccc([C@@H](C)Nc2nc(C)nc3cnc(P4(=O)CCN(C(C)=O)CC4)cc23)c1 [Example 143, 1-acetyl-4-[4-({(1R)-1-[3-(1,1-difluoro-2-methoxyethyl)phenyl]ethyl}amino)-2-methylpyrido[3,4-d]pyrimidin-6-yl]-1,4lambda^5-azaphosphinan-4-one]
